Tests used:
[1] = system: differentiated monocytic cell line THP-1; assay: In vitro phagocytic assay: ingestion of chilled or room temperature human platelets by THP-1 cells; type: cell-based; conditions: for inhibitory effect on chilled platelet phagocytosis (in words): phagocytes incubated in monosaccharide solutions at various concentrations; for inhibitory effect on RT platelet phagocytosis (in words): room temperature platelets
Method: CR3 expression was monitored by flow cytometry using a PE-conjugated anti-human CD11b/Mac-1 mAb. Undifferentiated or differentiated THP-1 cells (2×10^6/ml) were plated onto 24-well plates and allowed to adhere for 45 minutes at 37° C. The adherent undifferentiated or differentiated macrophages were activated by the addition of 15 ng/ml PMA for 15 min. CM-range-labeled, chilled or room temperature platelets (10^7/well), previously subjected to different treatments were added to the undifferentiated or differentiated phagocytes in Ca^2+- and Mg^2+-containing HBSS and incubated for 30 min at 37° C. Following the incubation period, the phagocyte monolayer was washed with HBSS for 3 times, and adherent platelets were removed by treatment with 0.05% trypsin/0.53 mM EDTA in HBSS at 37° C. for 5 min followed by 5 mM EDTA at 4° C. to detach the macrophages for flow cytometric analysis of adhesion or ingestion of platelets (Brown et al., 2000). […] CM-Orange-labeled platelets incubated with macrophages were resolved from the phagocytes according to their forward and side scatter properties. The macrophages were gated, 10,000 events acquired for each sample, and data analyzed with CELLQuest software (Becton Dickenson).
To analyze the effects of monosaccharides on platelet phagocytosis, phagocytes (differentiated monocytic cell line THP-1) were incubated in monosaccharide solutions at various concentrations, and the chilled or room temperature platelets were added. Values in the Figures are means±SD of 3-5 experiments comparing percentages of orange-positive monocytes containing ingested platelets incubated with RT or chilled platelets).

chilled human platelets = assay: FITC-WGA / S-WGA lectin binding to platelets by flow cytometry; type: cell-based; conditions: chilled or room temperature human platelets; control nucleotides
Method: We then investigated whether wheat germ agglutinin (WGA), a lectin with specificity towards the terminal sugar (GlcNAc), binds more effectively to chilled platelets than to room temperature platelets. Washed, chilled or room temperature platelets were incubated with 2 μg/ml of FITC coupled WGA or FITC coupled succinyl-WGA for 30 min at room temperature and analyzed by flow cytometry.
To analyze whether removal of GlcNAc residues reduces the binding of WGA to the platelet surface, chilled and room temperature washed human platelets were treated with 100 U/ml β-Hex for 30 min at 37° C.

human platelets [2] = assay: RCA I lectin binding to platelets by flow cytometry; type: cell-based; conditions: chilled or room temperature human platelets; control nucleotides
[3] = mice lacking 2,3Sialyltransferase IV; cited from earlier work
human platelets [4] = assay: Immunolabeling and flow cytometry of chilled versus room temperature platelets (human); type: cell-based; conditions: mean±SD, n=3−4
Method: (§1) Washed murine or human platelets (2×10^6) were analyzed for surface expression of CD62P, CD61, or surface bound IgM and IgG after chilling or room temperature storage by staining with fluorophore-conjugated Abs (5 μg/ml) for 10 min at 37° C. Phosphatidylserine exposure by chilled or room temperature platelets was determined by resuspending 5 μl of platelets in 400 μl of HBSS containing 10 mM Ca^2+ with 10 μg/ml of FITC-conjugated annexin-V. As a positive control for PS exposure, platelet suspensions were stimulated with 1 μM A23187. Fibrinogen binding was determined by the addition of Oregon Green-fibrinogen for 20 min at room temperature. All platelet samples were analyzed immediately by flow cytometry. Platelets were gated by forward and side scatter characteristics.
(§2) The binding of fluorescently labeled antibodies or ligands against various receptors on chilled-rewarmed or room temperature human and murine platelets was measured by flow cytometry. The data are expressed as the ratio between the mean fluorophore bound to the surface of chilled versus room temperature platelets (mean±SD, n=3−4).

Murine platelets = assay: Immunolabeling and flow cytometry of chilled versus room temperature platelets (murine); type: cell-based; conditions: mean±SD, n=3−4
Method: as §1, §2

[5] = system: platelet membrane glycoproteins; assay: Incorporation of 14C-labeled sugars into endogenous platelet glycoproteins (SDS-PAGE, autoradiography); type: biochemical, human; conditions: intact non-lysed platelets
Method: Transfer of sialic acids to endogenous glycoproteins by platelet sialyltransferase activity was tested in two ways. […] Intact platelets suspended in buffer (140 mM NaCl, 3 mM KCl, 0.5 mM MgCl2, 5 mM NaHCO3, 10 mM Hepes, pH 7.4) were used to assess the capacity of surface exposed sialyltransferase activity to transfer to platelet membrane glycoproteins. […] Thus, it was possible to use three different glycan modification strategies: addition of 1) UDP-[^14C]-galactose, 2) UDP-[^14C]-galactose and CMP-[^14C]-sialic acid, and 3) CMP-[^14C]-sialic acid alone. The incorporation of radioactive sugar nucleotides were monitored by SDS-PAGE chromatography followed by autoradiography.
The incorporation of radioactive carbohydrate sialic acid in endogenous platelet acceptor proteins was evaluated by incubating either detergent lysed platelets or non-lysed platelets with CMP-[^14C]-sialic. The incorporation ^14C-sialic acid was monitored by SDS-PAGE chromatography of the glycosylation mixture followed by autoradiography. Briefly, human apheresis platelets were washed and resuspended in resuspension buffer (40 mM NaCl, 3 mM KCl, 0.5 mM MgCl2, 5 mM NaHCO3, 10 mM Hepes, pH 7.4) and split in two fractions. One fraction was incubated with addition of CMP-[^14C]-sialic acid at 37° C. for 60 minutes. […]

CO[C@@H]1O[C@H](CO)[C@@H](O)[C@H](O)[C@@H]1O [Methyl-β-D-mannopyranoside]
inhibitory effect on chilled platelet phagocytosis (in words) ([1]; chilled platelets): no inhibitory effect
inhibitory effect on RT platelet phagocytosis (in words) [1]: no inhibitory effect

O=C[C@@H](O)[C@@H](O)[C@H](O)[C@H](O)CO [D-(+)-mannose]
inhibitory effect on chilled platelet phagocytosis (in words) ([1]; chilled platelets): no inhibitory effect
inhibitory effect on RT platelet phagocytosis (in words) [1]: no inhibitory effect

CC(=O)N[C@@H]1[C@@H](O)[C@H](O)[C@@H](CO)O[C@H]1O [β-GlcNac]
inhibition of the phagocytosis of chilled platelets ([1]; 10 μM): 80%
inhibitory effect on chilled platelet phagocytosis (in words) ([1]; chilled platelets): strongly inhibited

O=C[C@H](O)[C@@H](O)[C@@H](O)[C@H](O)CO [D-(+)-galactose]
% inhibition phagocytosis ([1]; chilled platelets, monosaccharide 100 mM): did not significantly inhibit

CC(=O)N[C@H]1C(O)O[C@H](CO)[C@@H](O)[C@@H]1O (stereo partly drawn) [GlcNac, N-acetyl-D-glucosamine]
inhibition of chilled platelet phagocytosis (in words) ([1]; 25 to 200 mM): significantly inhibited

O=c1ccn([C@@H]2O[C@H](COP(=O)(O)OP(=O)(O)O)[C@@H](O)[C@H]2O)c(=O)[nH]1 [UDP]
effect on S-WGA binding (chilled human platelets): no effect
effect on RCA I binding (human platelets [2]): no effect

CO[C@H]1O[C@H](CO)[C@@H](O)[C@H](O)[C@@H]1O [Methyl-α-D-mannopyranoside]
inhibitory effect on chilled platelet phagocytosis (in words) ([1]; chilled platelets): no inhibitory effect
inhibitory effect on RT platelet phagocytosis (in words) [1]: no inhibitory effect

asialofetuin
platelet count [3]: corrects the platelet count

fibrinogen
Binding ratio 4° C.:22° C. (human platelets [4]): 1.05 ± 0.10
Binding ratio 4° C.:22° C. (Murine platelets): 1.06 ± 0.06

cytidine monophospho-N-acetylneuraminic acid [CMP-sialic acid]
incorporation of radioactive sugar into platelet membrane glycoproteins [5]: high level of incorporation

annexin V: FITC-conjugated annexin-V, ligand for phosphatidylserine exposure
Binding ratio 4° C.:22° C. (human platelets [4]): 0.95 ± 0.09
Binding ratio 4° C.:22° C. (Murine platelets): 1.04 ± 0.02

CO[C@H]1O[C@H](CO)[C@@H](O)[C@H](O)[C@H]1O [Methyl-α-D-glucopyranoside]
inhibitory effect on chilled platelet phagocytosis (in words) ([1]; chilled platelets): did not have an inhibitory effect

COC1OC(CO)C(O)C(O)C1O [Methyl-β-D-gludopyranoside]
inhibitory effect on chilled platelet phagocytosis (in words) ([1]; chilled platelets): inhibited phagocytosis in a dose-dependent manner

Reference: patent US8221745B2 (Velico Medical, Inc., priority 2004, dated 2012)
